Source: BigSolDB 2.1

Cc1nc2n(c(=O)c1CCN1CCC(c3noc4cc(F)ccc34)CC1)CCCC2
solubility (mole fraction)
Details | 278.15 K | 283.15 K | 288.15 K | 293.15 K | 298.15 K | 303.15 K | 308.15 K | 313.15 K | 318.15 K | 323.15 K
in acetone | 0.00085 | 0.00095 | 0.00127 | 0.00143 | 0.00175 | 0.00219 | 0.00284 | 0.00336 | 0.00417 | 0.00507
in cumene | 0.00122 | 0.00147 | 0.00207 | 0.00219 | 0.0026 | 0.00309 | 0.00376 | 0.00481 | 0.00552 | 0.0066
in ethanol | 0.00096 | 0.00108 | 0.00131 | 0.00153 | 0.00201 | 0.00248 | 0.0033 | 0.00415 | 0.0051 | 0.00677
in ethyl acetate | 0.00116 | 0.00128 | 0.00167 | 0.00185 | 0.00216 | 0.00263 | 0.00331 | 0.00397 | 0.00485 | 0.0058
in isopropanol | 0.00036 | 0.00046 | 0.0006 | 0.0007 | 0.00103 | 0.00136 | 0.00203 | 0.00253 | 0.0032 | 0.00447
in methanol | 0.00202 | 0.0023 | 0.00272 | 0.00329 | 0.00396 | 0.00487 | 0.00615 | 0.0077 | 0.0099 | 0.0128
in n-butanol | 0.00152 | 0.00173 | 0.0022 | 0.00263 | 0.00347 | 0.00443 | 0.00593 | 0.00753 | 0.00963 | 0.0124
in n-propanol | 0.00139 | 0.00155 | 0.00197 | 0.00238 | 0.00305 | 0.00381 | 0.00517 | 0.00651 | 0.00839 | 0.0109
in toluene | 0.0038 | 0.00418 | 0.00521 | 0.00559 | 0.00667 | 0.008 | 0.00998 | 0.0117 | 0.014 | 0.0167
